This is an account of results in article PMC7665244 (Developmental cell, 2019).

In the assay the target is hCFTR (human CFTR) (Homo sapiens, UniProt P13569). Nature of the assay: inside-out oocyte macropatch current. It is filed as biochemical. The conditions noted are these: 1 mM ATP and PKA 127.6 U/mL; potentiator.
Chain of hCFTR (human CFTR) (P13569 whole entry): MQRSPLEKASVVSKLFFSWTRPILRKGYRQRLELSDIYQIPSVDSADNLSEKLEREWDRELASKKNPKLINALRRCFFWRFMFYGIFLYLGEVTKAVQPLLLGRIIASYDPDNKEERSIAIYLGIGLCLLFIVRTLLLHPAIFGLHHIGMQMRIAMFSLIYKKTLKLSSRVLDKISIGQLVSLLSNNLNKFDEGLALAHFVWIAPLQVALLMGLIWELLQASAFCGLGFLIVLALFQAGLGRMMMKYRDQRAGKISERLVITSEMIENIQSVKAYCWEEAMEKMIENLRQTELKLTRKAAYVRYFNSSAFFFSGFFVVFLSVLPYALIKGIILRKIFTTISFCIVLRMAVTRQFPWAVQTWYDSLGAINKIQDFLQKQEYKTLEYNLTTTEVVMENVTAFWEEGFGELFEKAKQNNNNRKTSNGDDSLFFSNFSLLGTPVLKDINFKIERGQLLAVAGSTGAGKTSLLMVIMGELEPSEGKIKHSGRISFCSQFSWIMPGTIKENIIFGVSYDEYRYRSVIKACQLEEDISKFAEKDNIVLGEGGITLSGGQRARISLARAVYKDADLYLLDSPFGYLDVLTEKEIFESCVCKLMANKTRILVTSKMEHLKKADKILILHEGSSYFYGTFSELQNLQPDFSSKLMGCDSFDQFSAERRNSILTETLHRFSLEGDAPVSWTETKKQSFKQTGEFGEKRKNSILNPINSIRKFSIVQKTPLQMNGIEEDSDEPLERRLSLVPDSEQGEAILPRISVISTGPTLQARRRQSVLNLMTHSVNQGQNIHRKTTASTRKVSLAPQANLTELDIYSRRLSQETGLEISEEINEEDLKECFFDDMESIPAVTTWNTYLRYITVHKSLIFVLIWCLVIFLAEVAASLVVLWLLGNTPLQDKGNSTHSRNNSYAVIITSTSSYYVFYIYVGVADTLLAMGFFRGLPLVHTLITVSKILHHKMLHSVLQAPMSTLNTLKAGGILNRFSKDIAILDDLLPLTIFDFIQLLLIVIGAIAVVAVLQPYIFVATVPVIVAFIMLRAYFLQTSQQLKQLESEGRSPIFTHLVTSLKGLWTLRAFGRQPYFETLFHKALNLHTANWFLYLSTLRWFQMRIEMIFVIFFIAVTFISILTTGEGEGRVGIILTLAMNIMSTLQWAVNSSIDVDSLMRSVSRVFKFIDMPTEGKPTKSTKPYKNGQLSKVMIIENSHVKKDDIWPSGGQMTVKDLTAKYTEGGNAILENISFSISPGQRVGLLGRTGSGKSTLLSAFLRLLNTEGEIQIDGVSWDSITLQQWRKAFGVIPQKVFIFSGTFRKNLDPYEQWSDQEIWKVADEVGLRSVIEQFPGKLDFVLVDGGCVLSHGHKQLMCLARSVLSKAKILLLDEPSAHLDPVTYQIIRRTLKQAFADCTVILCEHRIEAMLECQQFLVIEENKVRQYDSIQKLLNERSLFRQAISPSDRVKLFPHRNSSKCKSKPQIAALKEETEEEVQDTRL

As to `CC(C)(C)c1cc(C(C)(C)C)c(NC(=O)c2c[nH]c3ccccc3c2=O)cc1O` [VX-770], the “fractional potentiation at 0.2 μM” value is “although hCFTR is potentiated, Lp-CFTR shows no enhancement of function”.
